Test system: 276233-004-R-J1-PDC complex spheroid viability
Experiment: Anticancer human tumor 276233-004-R-J1-PDC patient-derived colon adenocarcinoma cell line growth inhibition [GQUAD]
Details: for IC50: curve of first compound; for viability, T/C: stronger effect = lower value
In short: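 Multi-cell-type spheroids of tumor cells with HUVEC and mesenchymal stem cells, treated with drug combinations. Concentrations descend in half-log steps from near clinical Cmax, or from 10 microM where Cmax is unknown; viability read-out.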
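Further: spheroids exposed to drugs for seven days.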
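Wherever viability, T/C is given: 100% = DMSO vehicle control viability.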

Work on `C#Cc1c(F)ccc2cc(O)cc(-c3ncc4c(N5CC6CCC(C5)N6)nc(OCC56CCCN5CC(F)C6)nc4c3F)c12` (configuration not stated) + CN(C)c1ccc(Nc2c3ccc(NC(=O)CCN4CCCC4)cc3nc3cc(NC(=O)CCN4CCCC4)ccc23)cc1 yielded an IC50 (second compound 0.0316 µM) of 3.31 µM, an IC50 (second compound 0.1 µM) of 3.14 µM and an IC50 (second compound 0.316 µM) of 1.3 µM. The IC50 (second compound 1 µM) was 0.368 µM, the IC50 (second compound 3.16 µM) was under 0.0316 µM and the IC50 (second compound 10 µM) was under 0.0316 µM. The viability, T/C (second compound 0.0316 µM, first compound 0.0316 µM) was 90.1%, the viability, T/C (second compound 0.0316 µM, first compound 0.1 µM) was 79% and the viability, T/C (second compound 0.0316 µM, first compound 0.316 µM) was 101%. The viability, T/C (second compound 0.0316 µM, first compound 1 µM) was 75.6%, the viability, T/C (second compound 0.0316 µM, first compound 3.16 µM) was 52% and the viability, T/C (second compound 0.0316 µM, first compound 10 µM) was 36.9%. The viability, T/C (second compound 0.1 µM, first compound 0.0316 µM) was 78.7%, the viability, T/C (second compound 0.1 µM, first compound 0.1 µM) was 74.2% and the viability, T/C (second compound 0.1 µM, first compound 0.316 µM) was 56.4%. For the same compound, the viability, T/C (second compound 0.1 µM, first compound 1 µM) was 56.8%, the viability, T/C (second compound 0.1 µM, first compound 3.16 µM) was 54.8% and the viability, T/C (second compound 0.1 µM, first compound 10 µM) was 42.2%. The viability, T/C (second compound 0.316 µM, first compound 0.0316 µM) was 54.7%, the viability, T/C (second compound 0.316 µM, first compound 0.1 µM) was 47.2% and the viability, T/C (second compound 0.316 µM, first compound 0.316 µM) was 57.1%. It also gave a viability, T/C (second compound 0.316 µM, first compound 1 µM) of 54.2%, a viability, T/C (second compound 0.316 µM, first compound 3.16 µM) of 39% and a viability, T/C (second compound 0.316 µM, first compound 10 µM) of 30.1%. The viability, T/C (second compound 1 µM, first compound 0.0316 µM) was 65%, the viability, T/C (second compound 1 µM, first compound 0.1 µM) was 54.8% and the viability, T/C (second compound 1 µM, first compound 0.316 µM) was 54.9%. For the same compound, the viability, T/C (second compound 1 µM, first compound 1 µM) was 40.4%, the viability, T/C (second compound 1 µM, first compound 3.16 µM) was 49.1% and the viability, T/C (second compound 1 µM, first compound 10 µM) was 42%. For the same compound, the viability, T/C (second compound 3.16 µM, first compound 0.0316 µM) was 51.2%, the viability, T/C (second compound 3.16 µM, first compound 0.1 µM) was 40% and the viability, T/C (second compound 3.16 µM, first compound 0.316 µM) was 36.5%. The viability, T/C (second compound 3.16 µM, first compound 1 µM) was 39.2%, the viability, T/C (second compound 3.16 µM, first compound 3.16 µM) was 39.1% and the viability, T/C (second compound 3.16 µM, first compound 10 µM) was 35.1%. The viability, T/C (second compound 10 µM, first compound 0.0316 µM) was 43.6%, the viability, T/C (second compound 10 µM, first compound 0.1 µM) was 43.7% and the viability, T/C (second compound 10 µM, first compound 0.316 µM) was 40.2%. For the same compound, the viability, T/C (second compound 10 µM, first compound 1 µM) was 40.7%, the viability, T/C (second compound 10 µM, first compound 3.16 µM) was 36.6% and the viability, T/C (second compound 10 µM, first compound 10 µM) was 27.4%.

From PubChem BioAssay AID2060496 (Molecular Pharmacology Branch, DTP, NCI, 2025)
